Experimental data reported in patent US7713950B2, “Antibacterial 1-(4-mono-and di-halomethylsulphonylphenyl)-2-acylamino-3-fluoroproponals and preparation thereof” (Intervet Inc., priority 2003, dated 2010).
≈ marks a conversion by molar mass, not a printed value.

How the values were obtained:
Type in all cases: cell-based
[1] = system: Pasteurella multocida; experiment: Broth microdilution susceptibility testing (MIC), Pasteurella multocida; conditions: broth microdilution (NCCLS, 2002), read-out: Minimal inhibitory concentration against Pasteurella multocida
Method: (§1) The list is not intended, nor should it be construed, to limit the scope of this invention in any manner whatsoever.
(§2) Compounds were tested for antimicrobial activity against several bacterial stains using standard broth microdilution susceptibility testing methodology (NCCLS, 2002). […] The enhanced activity of Compound 1 is especially noteworthy.
(§3) NCCLS. 2002. Performance standards for antimicrobial disk and dilution susceptibility tests for bacteria isolated from animals; approved standard-second edition. NCCLS document M31-A2 [ISBN 1-56238-461-9]. NCCLS, 940 West Valley Road, Suite 1400, Wayne, Pa. 19087-1898 USA.

[2] = system: Escherichia coli; experiment: Broth microdilution susceptibility testing (MIC), Escherichia coli; conditions: broth microdilution (NCCLS, 2002), read-out: Minimal inhibitory concentration against Escherichia coli
Method: as §1, §2, §3

[3] = system: Florfenicol-resistant Pasteurella multocida; experiment: Broth microdilution susceptibility testing (MIC), florfenicol-resistant Pasteurella multocida; conditions: for MIC: Pasteurella multocida, broth microdilution (NCCLS, 2002), florfenicol-resistant strain, read-out: Minimal inhibitory concentration against Florfenicol-resistant Pasteurella multocida
Method: as §1, §2, §3

[4] = system: Mannheimia haemolytica; experiment: Broth microdilution susceptibility testing (MIC), Mannheimia haemolytica; conditions: broth microdilution (NCCLS, 2002), read-out: Minimal inhibitory concentration against Mannheimia haemolytica
Method: as §1, §2, §3

[5] = system: Staphylococcus aureus; experiment: Broth microdilution susceptibility testing (MIC), Staphylococcus aureus; conditions: broth microdilution (NCCLS, 2002), read-out: Minimal inhibitory concentration against Staphylococcus aureus
Method: as §1, §2, §3

[6] = system: five bacterial strains; experiment: Broth microdilution susceptibility testing, comparison with florfenicol over the strain panel; conditions: five bacterial strains of Table 2
Method: as §1, §2, §3

SMILES | MIC [1] [µg/mL] | MIC [2] [µg/mL] | MIC [3] [µg/mL] | MIC [5] [µg/mL] | MIC [4] [µg/mL] | Activity relative to florfenicol against florfenicol-resistant Pasteurella multocida ([3]; versus florfenicol) [fold] | Activity compared with florfenicol over the strains tested [6]
O=C(N[C@H](CO)[C@H](O)c1ccc([N+](=O)[O-])cc1)C(Cl)Cl [Chloramphenicol, reference compound] | 0.25 (≈ 0.774 µM) | 4 (≈ 12.4 µM) | 16 (≈ 49.5 µM) | 8 (≈ 24.8 µM) | 1 (≈ 3.09 µM) |  | 
O=C(N[C@H](CF)[C@H](O)c1ccc(S(=O)(=O)CF)cc1)C(Cl)Cl [Compound 1, N-((1S,2R)-1-(Fluoromethyl)-2-{4-[(fluoromethyl)sulfonyl]phenyl}-2-hydroxyethyl)-2,2-dichloroacetamide] | 0.06 (≈ 0.159 µM) | 4 (≈ 10.6 µM) | 2 (≈ 5.32 µM) | 2 (≈ 5.32 µM) | 0.5 (≈ 1.33 µM) | 8 | more active than florfenicol for all five bacterial strains
O=C(N[C@H](CF)[C@H](O)c1ccc(S(=O)(=O)CF)cc1)C(F)(F)F [Compound 2] | 1 (≈ 2.77 µM) | 32 (≈ 88.6 µM) | 8 (≈ 22.1 µM) | 16 (≈ 44.3 µM) | 0.5 (≈ 1.38 µM) |  | 
N#CCC(=O)N[C@H](CF)[C@H](O)c1ccc(S(=O)(=O)CF)cc1 [Compound 4] | 1 (≈ 3.01 µM) | 16 (≈ 48.1 µM) | > 128 | 8 (≈ 24.1 µM) | 0.5 (≈ 1.5 µM) |  | 
[N-]=[N+]=NCC(=O)N[C@H](CF)[C@H](O)c1ccc(S(=O)(=O)CF)cc1 [Compound 5] | 0.25 (≈ 0.718 µM) | 8 (≈ 23 µM) | 16 (≈ 45.9 µM) | 8 (≈ 23 µM) | 0.25 (≈ 0.718 µM) |  | 
C[C@@H](N)C(=O)N[C@H](CF)[C@H](O)c1ccc(S(=O)(=O)CF)cc1 [Compound 6] | 1 (≈ 2.97 µM) | 32 (≈ 95.1 µM) | 128 (≈ 381 µM) | 64 (≈ 190 µM) | 1 (≈ 2.97 µM) |  | 
NCC(=O)N[C@H](CF)[C@H](O)c1ccc(S(=O)(=O)CF)cc1 [Compound 7] | 1 (≈ 3.1 µM) | 128 (≈ 397 µM) | > 128 | 64 (≈ 199 µM) | 1 (≈ 3.1 µM) |  | 
O=C(N[C@H](CF)[C@H](O)c1ccc(S(=O)(=O)CF)cc1)C(F)F [Compound 9] | 0.25 (≈ 0.728 µM) | 4 (≈ 11.7 µM) | 8 (≈ 23.3 µM) | 8 (≈ 23.3 µM) | 0.5 (≈ 1.46 µM) |  | 
CC(=O)N[C@H](CF)[C@H](O)c1ccc(S(=O)(=O)CF)cc1 [Compound 12] | 1 (≈ 3.25 µM) | > 128 | 32 (≈ 104 µM) | > 128 | 2 (≈ 6.51 µM) |  | 

Continued, in another order:

MIC [1] [µg/mL] | MIC [2] [µg/mL] | MIC [3] [µg/mL] | MIC [5] [µg/mL] | SMILES | MIC [4] [µg/mL] | Activity relative to florfenicol against florfenicol-resistant Pasteurella multocida ([3]; versus florfenicol) [fold] | Activity compared with florfenicol over the strains tested [6]
0.5 (≈ 1.17 µM) | > 128 | 4 (≈ 9.37 µM) | 8 (≈ 18.7 µM) | O=C(N[C@H](CF)[C@H](O)c1ccc(S(=O)(=O)C(Cl)Cl)cc1)C(Cl)Cl [Compound 3] | 0.5 (≈ 1.17 µM) |  | 
0.125 (≈ 0.317 µM) | 16 (≈ 40.6 µM) | 2 (≈ 5.07 µM) | 4 (≈ 10.1 µM) | O=C(N[C@H](CF)[C@H](O)c1ccc(S(=O)(=O)C(F)F)cc1)C(Cl)Cl [Compound 8] | 0.5 (≈ 1.27 µM) |  | 
0.25 (≈ 0.594 µM) | 8 (≈ 19 µM) | 4 (≈ 9.51 µM) | 4 (≈ 9.51 µM) | O=C(N[C@H](CF)[C@H](O)c1ccc(S(=O)(=O)CF)cc1)C(Cl)Br (stereo partly drawn) [Compound 10] | 0.5 (≈ 1.19 µM) |  | 
0.25 (≈ 0.695 µM) | 4 (≈ 11.1 µM) | 4 (≈ 11.1 µM) | 2 (≈ 5.56 µM) | O=C(N[C@H](CF)[C@H](O)c1ccc(S(=O)(=O)CF)cc1)C(F)Cl (stereo partly drawn) [Compound 11] | 0.25 (≈ 0.695 µM) |  | 
0.25 (≈ 0.698 µM) | 8 (≈ 22.3 µM) | 16 (≈ 44.7 µM) | 8 (≈ 22.3 µM) | CS(=O)(=O)c1ccc([C@@H](O)[C@@H](CF)NC(=O)C(Cl)Cl)cc1 [Florfenicol, reference compound] | 1 (≈ 2.79 µM) |  | 
0.25 (≈ 0.702 µM) | 64 (≈ 180 µM) |  |  | CS(=O)(=O)c1ccc([C@@H](O)[C@@H](CO)NC(=O)C(Cl)Cl)cc1 [Thiamphenicol, reference compound] | 1 (≈ 2.81 µM) |  | 
